Results from ChEMBL document CHEMBL3817841, “Biological evaluation of quinoline derivatives as inhibitors of human dihydroorotate dehydrogenase” (Medchemcomm, 2016).

Tests used:
[1] = target: T1, Dihydroorotate dehydrogenase (quinone), mitochondrial (Homo sapiens, UniProt Q02127); test: Inhibition of N-terminally truncated human DHODH (Met30 to Arg396 residues) expressed in Escherichia coli BL21 (DE3) using dihydroorotate as substrate preincubated for 5 mins followed by substrate addition measured every 30 secs for 6 mins by DCIP-based spectrophotometric assay
[2] = target: T1, Dihydroorotate dehydrogenase (quinone), mitochondrial; test: Binding affinity to N-terminally truncated human DHODH (Met30 to Arg396 residues) expressed in Escherichia coli BL21 (DE3) by surface plasmon resonance assay
[3] = target: T1, Dihydroorotate dehydrogenase (quinone), mitochondrial
Description: Binding affinity to N-terminally truncated human DHODH (Met30 to Arg396 residues) expressed in Escherichia coli BL21 (DE3) assessed as association rate constant by surface plasmon resonance assay

[4] = target: T1, Dihydroorotate dehydrogenase (quinone), mitochondrial; test: Binding affinity to N-terminally truncated human DHODH (Met30 to Arg396 residues) expressed in Escherichia coli BL21 (DE3) assessed as dissociation rate constant by surface plasmon resonance assay
[5] = target: T1, Dihydroorotate dehydrogenase (quinone), mitochondrial; remark: listed apart in the source
Description: Binding affinity to N-terminally truncated human DHODH (Met30 to Arg396 residues) expressed in Escherichia coli BL21 (DE3) assessed as change in melting temperature at 100 uM by fluorescence-based thermal shift assay

T1 sequence (Q02127 whole entry, the tested form may be a part): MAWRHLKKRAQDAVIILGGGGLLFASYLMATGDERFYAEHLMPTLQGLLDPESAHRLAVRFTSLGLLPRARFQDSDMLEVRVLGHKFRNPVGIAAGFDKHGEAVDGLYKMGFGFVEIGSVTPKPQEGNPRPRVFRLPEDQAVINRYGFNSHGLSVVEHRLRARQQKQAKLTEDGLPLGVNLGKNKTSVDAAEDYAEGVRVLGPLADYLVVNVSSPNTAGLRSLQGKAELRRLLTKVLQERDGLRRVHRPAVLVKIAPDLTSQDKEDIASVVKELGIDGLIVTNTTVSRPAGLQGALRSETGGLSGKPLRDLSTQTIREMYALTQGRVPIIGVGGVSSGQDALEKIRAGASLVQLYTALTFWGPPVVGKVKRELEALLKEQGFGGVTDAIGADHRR

Structure (SMILES) | IC50 [1] [nM] | further results
O=C(O)c1cc(-c2ccc(Cl)cc2Cl)nc2ccc(Br)cc12 | 666 | –
O=C(O)c1cc(-c2ccc(Cl)c(Cl)c2)nc2ccc(Br)cc12 | 57.1 | –
O=C(O)c1cc(-c2ccc3c(c2)OCO3)nc2ccccc12 | 5180 | –
CCCCc1ccc(-c2cc(C(=O)O)c3ccccc3n2)cc1 | 437 | –
CC(C)c1ccc(-c2cc(C(=O)O)c3cc(Br)ccc3n2)cc1 | 136 | –
CCCCOc1cccc(-c2cc(C(=O)O)c3ccccc3n2)c1 | 1310 | –
CCC(C)c1ccc(-c2nc3ccc(Br)cc3c(C(=O)O)c2C)cc1 (stereo not drawn) | 9.7 | Kd [2]: 12 nM; Ka [3]: 5.99 ×10⁵ /M/s; koff [4]: 7.58 ×10⁻³ /s; ΔTm [5]: 16.6 °C
COC(=O)c1cc(-c2ccc(OC)c(OC)c2)nc2ccccc12 | 3250 | –
Cc1c(-c2ccc(C(C)C)cc2)nc2ccccc2c1C(=O)O | 1570 | –
